Source: article PMC9394736 (FASEB journal : official publication of the Federation of …, 2020)

Experiments:
GDAP1ΔTM = biological target: T1, GDAP1ΔTM (Mus musculus, UniProt O88741); test: differential scanning fluorimetry; assay type: binding; settings: 2 mM or 0.5 mM ethacrynic acid; H-site
T1 sequence (O88741 1-322): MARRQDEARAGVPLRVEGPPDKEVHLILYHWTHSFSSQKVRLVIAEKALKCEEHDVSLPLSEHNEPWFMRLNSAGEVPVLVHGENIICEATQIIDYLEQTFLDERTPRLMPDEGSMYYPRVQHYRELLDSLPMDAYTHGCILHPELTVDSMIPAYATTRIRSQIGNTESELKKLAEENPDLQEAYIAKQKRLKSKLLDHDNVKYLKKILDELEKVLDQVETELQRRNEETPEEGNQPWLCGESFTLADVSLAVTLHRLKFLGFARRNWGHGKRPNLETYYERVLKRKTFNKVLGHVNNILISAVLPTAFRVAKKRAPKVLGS

GDAP1ΔNTΔHD1 = biological target: T2, GDAP1ΔNTΔHD1 (Mus musculus, UniProt O88741); test: differential scanning fluorimetry; assay type: binding; settings: 2 mM or 0.5 mM ethacrynic acid; H-site
T2 sequence (O88741 20-292): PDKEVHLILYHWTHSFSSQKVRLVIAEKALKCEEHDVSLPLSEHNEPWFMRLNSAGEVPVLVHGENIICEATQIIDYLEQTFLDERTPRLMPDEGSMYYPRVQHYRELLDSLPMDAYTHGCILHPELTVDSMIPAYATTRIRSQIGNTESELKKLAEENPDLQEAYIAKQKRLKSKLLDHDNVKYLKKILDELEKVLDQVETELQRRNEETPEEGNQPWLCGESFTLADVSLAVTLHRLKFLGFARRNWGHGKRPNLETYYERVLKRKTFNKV

GDAP1ΔHD1 = biological target: T3, GDAP1ΔHD1 (Mus musculus, UniProt O88741); test: differential scanning fluorimetry; assay type: binding; settings: 2 mM or 0.5 mM ethacrynic acid; H-site
T3 sequence (O88741 1-292): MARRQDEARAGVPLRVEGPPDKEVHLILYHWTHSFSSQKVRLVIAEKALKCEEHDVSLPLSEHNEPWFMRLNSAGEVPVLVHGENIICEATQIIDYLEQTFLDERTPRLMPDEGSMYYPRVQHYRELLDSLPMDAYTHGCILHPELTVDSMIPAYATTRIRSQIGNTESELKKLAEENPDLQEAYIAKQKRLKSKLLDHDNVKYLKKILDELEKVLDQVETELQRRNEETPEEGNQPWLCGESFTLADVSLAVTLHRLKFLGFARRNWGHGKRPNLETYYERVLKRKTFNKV

GST Mu = GST Mu (Schistosoma japonicum, UniProt P08515); test: differential scanning fluorimetry; assay type: binding; settings: 1 mM ethacrynic acid, without or with 1 mM GSH; H-site
GDAP1ΔNT = biological target: T4, GDAP1ΔNT (Mus musculus, UniProt O88741); test: differential scanning fluorimetry; assay type: binding; settings: 2 mM or 0.5 mM ethacrynic acid; H-site
T4 sequence (O88741 20-322): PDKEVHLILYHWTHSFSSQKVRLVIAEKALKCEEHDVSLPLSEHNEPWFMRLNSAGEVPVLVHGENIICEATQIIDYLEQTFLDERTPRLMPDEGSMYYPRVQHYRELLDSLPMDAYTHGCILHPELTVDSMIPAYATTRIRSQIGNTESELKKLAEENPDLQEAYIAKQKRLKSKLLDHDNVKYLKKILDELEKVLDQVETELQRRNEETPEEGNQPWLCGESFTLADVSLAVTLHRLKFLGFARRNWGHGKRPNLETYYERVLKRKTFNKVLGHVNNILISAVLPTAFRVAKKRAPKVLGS

[1] = biological target: GST Mu (Mu class glutathione S-transferase from Schistosoma japonicum) (Schistosoma japonicum); test: SEC

Sequence of GST Mu (P08515 whole entry): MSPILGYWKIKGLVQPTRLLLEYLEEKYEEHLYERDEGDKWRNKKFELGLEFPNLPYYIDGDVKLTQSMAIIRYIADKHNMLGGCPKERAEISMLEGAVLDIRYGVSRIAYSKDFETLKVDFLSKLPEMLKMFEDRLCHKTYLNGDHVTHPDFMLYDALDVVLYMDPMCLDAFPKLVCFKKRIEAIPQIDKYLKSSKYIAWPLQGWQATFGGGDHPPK
Sequence of GST Mu (Mu class glutathione S-transferase from Schistosoma japonicum) (enzyme) (P08515 2-218): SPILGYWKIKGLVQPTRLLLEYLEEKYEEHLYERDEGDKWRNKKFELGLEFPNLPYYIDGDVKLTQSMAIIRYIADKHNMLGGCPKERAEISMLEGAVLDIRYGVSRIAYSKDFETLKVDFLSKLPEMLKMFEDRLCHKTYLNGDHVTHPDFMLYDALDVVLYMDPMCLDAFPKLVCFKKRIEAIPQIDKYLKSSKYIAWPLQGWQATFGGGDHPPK

Row | Molecule | melting temperature shift (GDAP1ΔTM) | melting temperature shift (GDAP1ΔNTΔHD1) | melting temperature shift (GDAP1ΔHD1) | melting temperature shift (GST Mu) | melting temperature shift (GDAP1ΔNT) | stoichiometry N [1]
1 | C=C(CC)C(=O)c1ccc(OCC(=O)O)c(Cl)c1Cl [ethacrynic acid] | GDAP1ΔTM, GDAP1ΔHD1, GDAP1ΔNT, GDAP1ΔNT ΔHD1 all retained ethacrynic acid binding | GDAP1ΔTM, GDAP1ΔHD1, GDAP1ΔNT, GDAP1ΔNT ΔHD1 all retained ethacrynic acid binding | GDAP1ΔHD1 retains binding but the magnitude of the shift was reduced | GST Mu had an enhanced shift in the presence of both glutathione and EA | GDAP1ΔTM, GDAP1ΔHD1, GDAP1ΔNT, GDAP1ΔNT ΔHD1 all retained ethacrynic acid binding | 
2 | GST Mu (Mu class glutathione S-transferase from Schistosoma japonicum) (enzyme) |  |  |  |  |  | 2
